Results on one compound are retold here after US20090203716A1, “Pyrimidine low molecular weight ligands for modulating hormone receptors” (The Government of the United States of America as …, priority 2006, published 2009).

Each structure is given as a SMILES string.

The subject of experiment [1] is thyroperoxidase (TPO) mRNA expression in human thyrocytes. Nature of the experiment: TPO mRNA expression in primary cultures of human thyrocytes. The class given is cell-based. Also noted: inhibition of TSH-stimulated increase of TPO mRNA expression: dose or concentration left out as unconfirmed. As to the method: Thyroid tissue samples were obtained through the NIH Clinical Center during surgery for unrelated reasons. Patients provided informed consent on an IRB approved protocol and materials were received anonymously via approval of research activity through the Office of Human Subjects Research. The specimens were maintained in HBSS on ice and isolation of cells was initiated within 4 hours after surgery. All preparations were performed under sterile conditions. Tissue samples were minced into small pieces by fine surgical forceps and scissors in a 10 cm dish with a small volume of HBSS. Tissue pieces were transferred to a 15 ml tube (Falcon) and washed at least 3 times with HBSS. Afterward, tissue pieces were incubated with HBSS containing 3 mg/ml Collagenase Type IV (Gibco). Enzymatic digestion proceeded for 30 minutes or longer with constant shaking in a water bath at 37° C. until a suspension of isolated cells was obtained. After centrifugation for 5 minutes at 1000 rpm, the supernatant was removed and cells were resuspended in 10 ml DMEM with 10% FBS. Cells were plated in 10 cm tissue culture dishes and incubated at 37° C. in a humidified 5% CO2 incubator. After 24 hours, the supernatant containing non-adherent cells was removed. The primary cultures of thyroid cells formed a confluent monolayer within 5-7 days. […]

In another experiment the target is T1, FSHR (Homo sapiens, UniProt P23945).
T1 sequence (P23945 18-695): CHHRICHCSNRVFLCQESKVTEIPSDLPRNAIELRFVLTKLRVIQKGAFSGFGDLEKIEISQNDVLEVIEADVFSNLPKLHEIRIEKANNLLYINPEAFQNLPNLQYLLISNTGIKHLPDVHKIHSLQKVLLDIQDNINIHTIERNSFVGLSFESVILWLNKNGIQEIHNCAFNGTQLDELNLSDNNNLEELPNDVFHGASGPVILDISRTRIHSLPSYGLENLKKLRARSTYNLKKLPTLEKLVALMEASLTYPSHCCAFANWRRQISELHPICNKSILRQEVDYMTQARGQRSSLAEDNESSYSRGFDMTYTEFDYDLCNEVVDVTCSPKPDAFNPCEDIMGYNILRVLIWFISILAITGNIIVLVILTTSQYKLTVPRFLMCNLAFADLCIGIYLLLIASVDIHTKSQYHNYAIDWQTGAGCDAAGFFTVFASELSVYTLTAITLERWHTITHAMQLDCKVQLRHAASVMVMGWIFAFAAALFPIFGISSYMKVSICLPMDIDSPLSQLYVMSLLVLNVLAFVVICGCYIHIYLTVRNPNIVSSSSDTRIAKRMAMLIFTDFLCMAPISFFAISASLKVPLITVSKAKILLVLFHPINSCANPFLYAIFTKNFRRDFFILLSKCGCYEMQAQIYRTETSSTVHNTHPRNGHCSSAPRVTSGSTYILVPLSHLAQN
As to the kind of experiment: intracellular cAMP accumulation in HEK-EM 293 cells stably expressing FSHR. The class given is cell-based. As to the method: The expression vectors for human TSHR and LHR are described in Jaschke et al., J Biol Chem 281:9841-9844. The FSHR cDNA in pcDNA3.1 was obtained from the Missouri S&T cDNA Resource Center (www.cDNA.org) and was subcloned into the pcDNA3.1(−)/hygromycin vector. HEK-EM 293 cells were transfected with the cDNA of TSHR, LHCGR or FSHR using FuGENE 6 Transfection reagent (Roche Diagnostics). Hygromycin (250 μg/ml) was used as selection marker.
(§1) Transiently transfected cells were cultured for 48 hours before the cAMP assay. HEK-EM 293 cells stably expressing TSHR, LHCGR or FSHR were seeded into 24-well plates with a density of 2.2×10^5 cells/well 24 hours before the cAMP assay. After removal of growth medium, cells were incubated for 1 hour in HBSS (Cellgro) with 10 mM HEPES (Cellgro) containing 1 mM 3-isobutyl-1-methylxanthine (IBMX) (Sigma) and the ligand of interest in a humidified 5% CO2 incubator at 37° C. The intracellular cAMP content was determined with the cAMP Biotrak Enzymeimmunoassay (EIA) System (GE Healthcare). Data were analyzed using GraphPad Prism 4 for Windows. Receptor expression was measured as described in Jaschke et al., J Biol Chem 281:9841-9844.
On the technique in general: cAMP levels reflect the balance of adenylyl cyclase and phosphodiesterase activity.

Another experiment concerns the target T2, human LHCG receptor (Homo sapiens, UniProt P22888).
T2 construct: expressed in transfected cells
Nature of the experiment: intracellular cAMP accumulation, agonism at LHCGR stably expressed in HEK EM 293 cells. Particulars: full activation of LHCGR by LH set at 100%. The class given is cell-based. As to the method: With reference to Table 1, exemplary disclosed compounds were evaluated against human TSH receptor and human LHCG receptor that were stably expressed in HEK 293 EM cells as previously described by Libert et al. (Biochem. Biophys. Res. Commun. 1989, 165, 1250-1255); and by Schulz et al. (Mol. Endocrinol. 1999, 13, 181-190). Cell surface expression of TSH receptor and LHCG receptor were determined via FACS analysis (Kleinau, G.; Jäschke, H.; Neumann, S.; Lättig, S.; Paschke, R.; Krause, G. J. Biol. Chem. 2004, 279, 51590-51600).
Following aspiration of the medium after incubation with compounds, cells were lysed using lysis buffer 1 of the cAMP Biotrak Enzymeimmunoassay (EIA) System (Amersham Biosciences). The cAMP content of the cell lysate was determined using the manufacturer's protocol. […] The potency (EC50) was obtained from dose response curves (0-100 μM compound) by data analysis with GraphPad Prism 4 for Windows. […] The data are presented as mean±SEM of two independent experiments, each performed in duplicate.
as §1

A further experiment addresses TSHR (Homo sapiens, UniProt P16473). As to the kind of experiment: competition with 125I-labeled TSH for binding to TSHR.

Sequence of TSHR (P16473 21-764): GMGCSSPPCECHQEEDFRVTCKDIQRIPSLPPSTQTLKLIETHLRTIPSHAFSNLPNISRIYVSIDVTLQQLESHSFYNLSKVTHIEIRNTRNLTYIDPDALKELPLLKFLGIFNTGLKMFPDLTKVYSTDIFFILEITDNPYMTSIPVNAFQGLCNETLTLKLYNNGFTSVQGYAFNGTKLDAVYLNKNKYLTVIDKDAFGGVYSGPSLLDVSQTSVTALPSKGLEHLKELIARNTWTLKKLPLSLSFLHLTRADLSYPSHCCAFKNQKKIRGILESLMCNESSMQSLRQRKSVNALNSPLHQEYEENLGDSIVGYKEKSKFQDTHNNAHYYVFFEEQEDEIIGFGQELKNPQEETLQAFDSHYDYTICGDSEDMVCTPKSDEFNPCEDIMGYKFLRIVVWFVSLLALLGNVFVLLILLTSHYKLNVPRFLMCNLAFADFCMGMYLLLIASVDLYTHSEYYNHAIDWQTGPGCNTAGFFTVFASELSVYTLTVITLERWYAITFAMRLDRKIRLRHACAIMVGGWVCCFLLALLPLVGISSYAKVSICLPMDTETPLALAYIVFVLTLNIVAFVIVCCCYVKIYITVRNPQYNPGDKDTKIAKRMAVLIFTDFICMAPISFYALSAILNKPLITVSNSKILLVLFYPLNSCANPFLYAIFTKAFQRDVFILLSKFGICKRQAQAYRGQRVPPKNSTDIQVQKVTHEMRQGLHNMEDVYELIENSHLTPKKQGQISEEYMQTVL
T2 sequence (P22888 27-699): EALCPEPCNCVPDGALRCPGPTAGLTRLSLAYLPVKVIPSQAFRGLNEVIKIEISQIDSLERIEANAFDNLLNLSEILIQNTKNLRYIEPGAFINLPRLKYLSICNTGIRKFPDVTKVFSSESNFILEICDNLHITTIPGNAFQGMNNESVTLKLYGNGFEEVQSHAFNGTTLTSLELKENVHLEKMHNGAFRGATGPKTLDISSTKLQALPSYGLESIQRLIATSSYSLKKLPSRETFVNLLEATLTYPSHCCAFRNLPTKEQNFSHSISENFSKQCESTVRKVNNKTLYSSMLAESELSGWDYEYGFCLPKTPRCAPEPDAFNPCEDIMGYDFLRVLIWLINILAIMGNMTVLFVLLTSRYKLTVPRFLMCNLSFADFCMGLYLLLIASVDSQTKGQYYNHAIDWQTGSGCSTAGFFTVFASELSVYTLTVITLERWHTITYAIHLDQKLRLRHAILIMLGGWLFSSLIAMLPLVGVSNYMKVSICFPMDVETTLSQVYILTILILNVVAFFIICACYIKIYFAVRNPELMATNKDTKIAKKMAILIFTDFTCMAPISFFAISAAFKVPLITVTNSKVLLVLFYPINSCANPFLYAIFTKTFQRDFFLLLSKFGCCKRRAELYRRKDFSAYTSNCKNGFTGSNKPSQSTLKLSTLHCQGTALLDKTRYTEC

As for `COC/C=C/c1ccc(-c2nc(SC)nc3sc(C(=O)NC(C)(C)C)c(N)c23)cc1` [Compound 52], the “inhibition of TSH-stimulated increase of TPO mRNA expression” value in experiment [1] (1 hour pretreatment, 24 hours with TSH, thyrocytes from two donors) was “inhibited”. Besides, the “inhibition of TsAb-stimulated TPO mRNA expression” value in experiment [1] (Graves' disease sera 1:50, 10 μM compound, 24 hours) is “inhibited”. Further, at FSHR, the “activity at FSHR” value is recorded as “no activity”. Also, the “activity at LHCGR compared to full activation by LH” value at human LHCG receptor is listed as 17.25±2.25%. Moreover, the “competition with 125I-labeled TSH for binding to TSHR” value on TSHR was “does not compete”.
